Experimental data published in patent US20250214951A1, “3-PHENYLISOXAZOLE DERIVATIVE, AND PHARMACEUTICAL COMPOSITION FOR PREVENTING OR TREATING EYE DISEASE, CONTAINING SAME AS ACTIVE INGREDIENT” (VASTHERA CO., LTD., priority 2022, published 2025).

Tests used:
A2E-BDP in ARPE-19 cells [1] = experiment: A2E-BDP removal ability by concentration of other example compounds; format: cell-based, human; conditions: indicated concentrations; FIG. 13
Protocol: (§1) The human retinal pigment epithelial cell line (ARPE-19) used in the experiment was provided by ATCC (American Type Culture Collection). The ARPE-19 cell line was cultured in DMEM medium containing 10% FBS. After culture, the cells were dispensed into 96-well plates at a concentration of 4×10^3 cells/well and cultured for 24 hours. The ARPE-19 cell line was treated with A2E-fluorescent labeling substance (A2E-BDP) at a concentration of 10 μM for 24 hours to induce the accumulation of A2E-BDP in the ARPE-19 cell line.
(§2) In order to evaluate the intracellular A2E removal ability of the compound of the present invention, an easily detectable A2E-fluorescent labeling substance (A2E-BDP) was used. The ARPE-19 cells prepared by the above method were treated with each test compound at a concentration of 50 μM once, and then cultured for 24 hours. The cells were lysed by adding a cell lysis buffer containing a protease inhibitor (50 mM Tris-chloride, pH 8.0, 150 mM sodium chloride, 1% NP-40, 1% sodium deoxycholate, 1% sodium dodecyl sulfate, and 2 mM ethylenediamine tetraacetic acid) to each 96-well. The prepared cell lysate was transferred to a white 96-well plate, and the fluorescence intensity was measured using a fluorescence microplate reader (VICTOR™ X3, Perkin Elmer, USA) (excitation 485 nm, emission 535 nm).
The A2E-fluorescent labeling substance (A2E-BDP) removal ability was evaluated according to Experimental Example 1 (except that the test compound was treated at the indicated concentration).

[2] = test system: A2E-BDP present in human retinal pigment epithelial cells (ARPE-19); experiment: Screening of ability to remove A2E-fluorescent labeling substance (A2E-BDP), lysate fluorescence; format: cell-based; conditions: ARPE-19, 24 h, ARPE-19 loaded with 10 μM A2E-BDP 24 h, test compound 50 μM once, fluorescence ex 485/em 535 nm, read-out: Capacity (%) to remove A2E-BDP at 50 μM
Protocol: as §1, §2

[3] = test system: p62 protein phosphorylated at serine 349 (p-p62 (S349)); experiment: Autophagy activation by increase of p-p62 (S349), Western immunoblotting; format: cell-based, human; conditions: indicated concentrations; FIG. 14
Protocol: The cells were treated with the test compounds at the indicated concentrations, and the autophagy activation effect through the increase of p62 protein (p-p62 (S349)) phosphorylated at serine 349 residue was measured by Western immunoblotting using an anti-p-p62 antibody, and the results are shown in FIG. 14. The increase in the intracellular P-p62 ([…]) level is one of the major indicators of autophagy activation.

LC3-II [4] = experiment: Concentration-dependent autophagy activation through increase of LC3-II (FIGS. 15 and 16); format: cell-based, human
Protocol: (§3) ARPE-19 was dispensed into a 6-well plate at a concentration of 1×10^5 cells/well and cultured for 24 hours. Then, cells were treated with example 17 compound of the present invention at concentrations of 10, 25, and 50 μM for 12 hours. Then, a cell lysis buffer containing a protease inhibitor was added to prepare a cell lysate. The LC3-II level was measured by Western immunoblotting using an anti-LC3-II antibody (Cell Signaling Technology, MA, USA). As an internal control, an antibody against β-actin (Cell Signaling Technology) was used and measured by Western immunoblotting in the same manner as above, and is shown in FIG. 6 (upper graph).
(§4) The autophagy activation effect of example compounds expected to have autophagy activation ability and low cytotoxicity among the example compounds in Table 2 above in human retinal pigment epithelial cells was evaluated according to Experimental Example 7. That is, the autophagy activation effect through the increase of LC3-II was evaluated in a concentration-dependent manner, and the results are shown in FIGS. 15 and 16.

LC3-II [5] = experiment: LC3-II production capacity at 10 μM (Table 4); format: cell-based; conditions: Homo sapiens, 12 h
Protocol: as §3, §4

A2E-BDP in ARPE-19 cells [6] = experiment: Removal of A2E-BDP by concentration, fluorescence and phase contrast microscopy; format: cell-based, human; conditions: ARPE-19 with A2E-BDP; 10, 25, 50 μM, 24 h; FIG. 1
Protocol: ARPE-19 cell line was dispensed into a 24-well plate at a concentration of 4×10^4 cells/well and cultured for 24 hours. In order to induce A2E-BDP accumulation in ARPE-19 cell line, the cells were treated with […] of 10 μM for 24 hours. The A2E-BDP-containing ARPE-19 cells were treated with compound 17 (10, 25, 50 μM) for 24 hours. The level of A2E-BDP in each cell was measured as a fluorescence image at 510 nm using a Nikon Eclipse Ti—U fluorescence microscope (Tokyo, Japan). In addition, the change in cell number according to compound treatment was observed using a general phase contrast microscope, and the results are shown in FIG. 1. Meanwhile, lutein was used as a control substance.

| Compound | A2E-BDP removal ability by concentration (amount of A2E) (A2E-BDP in ARPE-19 cells [1]) | inhibition at 50 µM [2] | autophagy activation through increase of p-p62 (S349) [3] | autophagy activation effect through the increase of LC3-II (LC3-II [4]) | fold induction at 10 µM (LC3-II [5]) | A2E-BDP fluorescence intensity (fluorescence microscope) (A2E-BDP in ARPE-19 cells [6]) |
| --- | --- | --- | --- | --- | --- | --- |
| COc1ccc(Br)cc1-c1cc(COCc2ccccc2)on1 [Example 11, 5-((benzyloxy)methyl)-3-(5-bromo-2-methoxyphenyl)isoxazole] | concentration-dependent decrease in the amount of A2E | ≥ 60% | activated autophagy in a concentration-dependent manner |  |  |  |
| C=CCc1ccc(OC)c(-c2cc(COCc3ccccc3)on2)c1 [Example 18, 3-(5-allyl-2-methoxyphenyl)-5-((benzyloxy)methyl)isoxazole] | concentration-dependent decrease in the amount of A2E | ≥ 60% | activated autophagy in a concentration-dependent manner |  |  |  |
| COc1ccc(Br)cc1-c1cc(CN2CCN(C(=O)OC(C)(C)C)CC2)on1 [Example 21, tert-butyl 4-((3-(5-bromo-2-methoxyphenyl)isoxazole-5-yl)methyl)piperazine-1-carboxylate] | concentration-dependent decrease in the amount of A2E | ≥ 60% | activated autophagy in a concentration-dependent manner |  |  |  |
| CCCc1ccc(OC)c(-c2cc(CN3CCN(C(=O)OC(C)(C)C)CC3)on2)c1 [Example 26, tert-butyl 4-((3-(2-methoxy-5-propylphenyl)isoxazole-5-yl)methyl)piperazine-1-carboxylate] | concentration-dependent decrease in the amount of A2E | ≥ 60% | activated autophagy in a concentration-dependent manner |  |  |  |
| C=CCc1ccc(OC)c(-c2cc(CN3CCN(C)CC3)on2)c1 [Example 41, 3-(5-allyl-2-methoxyphenyl)-5-((4-methylpiperazine-1-yl)methyl)isoxazole] |  |  |  | excellent autophagy activation effects | 2.3 |  |
| CCCc1ccc(OC)c(-c2cc(CN3CCN(C)CC3)on2)c1 [Example 42, 3-(2-methoxy-5-propylphenyl)-5-((4-methylpiperazine-1-yl)methyl)isoxazole] |  |  |  | excellent autophagy activation effects | 2.3 |  |
| COc1ccc(C(C)C)cc1-c1cc(CN2CCNCC2)on1 [Example 47, 3-(5-isopropyl-2-methoxyphenyl)-5-(piperazine-1-ylmethyl)isoxazole] |  |  |  | excellent autophagy activation effects | 2.7 |  |
| CCCc1cc(-c2cc(CN3CCNCC3)on2)c(OC)cc1F [Example 58, 3-(4-fluoro-2-methoxy-5-propylphenyl)-5-(piperazine-1-ylmethyl)isoxazole] |  |  |  | excellent autophagy activation effects | 3.2 |  |
| CCCc1cc(-c2cc(CN3CCN(C)CC3)on2)c(OC)cc1F [Example 59, 3-(4-fluoro-2-methoxy-5-propylphenyl)-5-((4-methylpiperazine-1-yl)methyl)isoxazole] |  |  |  | excellent autophagy activation effects | 3.1 |  |
| CCCc1ccc(OC(F)(F)F)c(-c2cc(CN3CCN(C)CC3)on2)c1 [Example 60, 5-((4-methylpiperazine-1-yl)methyl)-3-(5-propyl-2-(trifluoromethoxy)phenyl)isoxazole] |  |  |  | excellent autophagy activation effects | 3.1 |  |
| CC1=C[C@H](O)CC(C)(C)[C@H]1/C=C/C(C)=C/C=C/C(C)=C/C=C/C=C(C)/C=C/C=C(C)/C=C/C1=C(C)C[C@@H](O)CC1(C)C [lutein, reference compound] |  |  |  |  |  | a decrease in fluorescence intensity was observed |
